Test results as given in US6989263B1, “Method for identifying and using compounds that inactivate HIV-1 and other retroviruses by attacking highly conserved zinc fingers in the viral nucleocapsid protein” (The United States of America as represented by the …, priority 1994, dated 2006).
Entries after “also recorded” stand apart in the source; their conditions may differ. Where two headings read alike, the source gives them in different places.

How the values were obtained:
[1] = biological target: T1, p11 Nucleocapsid Protein (p11NC) (Equine infectious anemia virus, UniProt P69732); test: Cross-linking of p11NC in intact EIAV particles (gel-mobility shift); type: biochemical; conditions: intact EIAV (50 μM), 4× the HIV assay concentrations
T1 construct: a variety of disulfide reagents cross-link the p11NC protein in intact viral particles; endogenous in cells; host or cells: intact EIAV particles
T1 sequence (P69732 360-435): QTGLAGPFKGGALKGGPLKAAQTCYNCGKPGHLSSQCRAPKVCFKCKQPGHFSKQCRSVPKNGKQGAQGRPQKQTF
Description: Essentially the same strategy was employed to analyze the ability of the various disulfide reagents to cross-link the p11 Nucleocapsid Protein (p11NC) in intact Equine Infectious Anemia Virus (EIAV) particles. The advantages of working with EIAV include the fact that it is not a human pathogen, and that the p11NC protein can be visualized by simple coomassie-blue staining after performing the gel-mobility shift assay (rather than by western blotting as for HIV) described above. The reaction conditions were essentially the same for the EIAV assays as for the HIV assays described above, except that the concentration of virus and disulfide reagent was 4× the concentrations used in the HIV assay above. The second number in each cell in the X-link column in Table 2 represents the time required to cross-link one-half of the p11NC protein in the intact viral particles. […] The bottom number in each cell of the X-link column, unless otherwise indicated, represents the concentration of EIAV used in the assay. Blank cells throughout Table 2 indicate that the compound has yet to be tested for the specified property.

[2] = biological target: T2, HIV NC protein in intact virus (Human immunodeficiency virus type 1 group M subtype B, UniProt P05888); test: Cross-linking of NC protein in intact HIV (non-reducing gel-mobility shift, western blot); type: biochemical, HIV-1; conditions: for X-link T-½ (min), HIV NC protein (top number): intact HIV generally 12.5 μM, reagent generally 25 μM; for X-link T-½ (min), HIV NC protein: HIV-1 @ 50 μM
T2 construct: endogenous in cells; host or cells: intact HIV virions
Description: Purified concentrated retrovirus and antisera against the purified NC protein of the virus can be used to test the ability of a specific compound to penetrate the virus and react with the NC protein by forming disulfide complexes in the core of the virus. The compound is mixed with the whole retrovirus under reaction conditions appropriate for the compound. The virus is then removed from the reagent by centrifugation and disrupted in, e.g, standard SDS-PAGE sample buffer with (reduced) and without (non-reduced) 2-mercaptoethanol. The viral proteins are then separated by standard SDS-PAGE and the sample examined for the presence or absence of the monomeric NC protein in the non-reduced sample. Depending upon the virus used in the experiment and the conditions of electrophoresis, the NC protein can be visualized by protein staining methods, or by immuno-blot (e.g., western) methods. Compounds which react with the NC protein by attacking the zinc finger complexes and forming disulfide cross-linked products (i.e., which generate multimers in the mobility shift assay) inactivate the virus. Thus, compounds of interest (i.e., those which cause cross-linking) reduced the amount of monomeric NC protein detected.
In order to determine whether HIV-1MN was inactivated by NOBA, the virus was incubated with varying concentrations of NOBA (3.0, 0.3, 0.03 and 0 mM) as in Table 1. The reaction products were pelleted by centrifugation, and separated by SDS-PAGE under reducing (2% 2-mercaptoethanol, panel A), or non-reducing conditions (panel B). p7NC was visualized by immunoblot analysis using monospecific rabbit antisera to the purified NC proteins as per L. E. Henderson et al., J. Virol. 66:1856 (1992).
Disulfide reagents were further tested for their ability to disrupt NC structure in the virus, based on their ability to cause inter-NC cysteine disulfide bonds (i.e., cross-linking) in the intact virus. The formation of inter-NC cysteine disulfides creates NC multimers, which migrate through a non-reducing gel at a different rate than NC monomers, as described above. Intact HIV virus (generally 12.5 μM) was exposed to the specified reagent (generally 25 μM) for varying lengths of time and electrophoresed through a non-reducing SDS-polyacrylamide gel. HIV NC monomers and multimers were visualized by western blot analysis as described above in Example 3. The approximate time required to cross-link one-half of the NC proteins in the virus at the specified reaction conditions was then determined. […] The top number in the cells of the X-link column in Table 2 refers to the approximate time in minutes required for one-half of the HIV NC proteins to become cross-linked.

[3] = biological target: T3, p7NC (Human immunodeficiency virus type 1 group M subtype B, UniProt P05888); test: HPLC analysis of reaction products of purified p7NC with reagent; type: biochemical, HIV-1; parameters: key to Protein (HPLC): reaction products / Protein (HPLC): reaction rate: formation of non-native, intra-protein disulfide links (designated “Disulfides”); some of the reagents form adducts with the cysteine residues as well (designated “Adducts”); slow: “Slow” reactions are those in which greater than 10% of the p7NC protein remained in its native form after the 10 minute incubation with reagent; very slow: “Very slow” reactions are those in which greater than 50% of the p7NC protein remained in its native form after the 10 minute incubation with reagent; fast: “Fast” reactions result in complete transformation of the p7NC protein to non-native conformations during the 10 minute incubation period; conditions: for Protein (HPLC): reaction products / Protein (HPLC): reaction rate: 63 μM p7NC, 6 reagent : 1 protein, 10 minutes
T3 construct: The NC protein of HIV-1 (MN) p7NC was expressed in E. coli; made in house; host or cells: E. coli (vector pMAL-c)
Description: Highly purified retroviral NC proteins can be produced by expression from vectors generated through recombinant DNA technology. These proteins when reconstituted with zinc (see, Summers, et al., Protein Science 1:563–567 (1992) for methods), provide the source of the NC proteins containing the zinc fingers that are the targets for attack by the compounds of this invention. When the zinc fingers in NC proteins react with identified compounds, the reaction produces a covalent change in the NC protein, and the modified protein can be separated from the unreacted protein by, for example, reversed phase HPLC.
Samples of p7NC and apo-p7 were reacted with varying amounts of cupric chloride and resulting products separated by HPLC. The reactions were carried out using 44.3 μM protein (p7NC or apo-p7) in 0.1 M Tris-HCl, pH 7.4, for 6 minutes at room temperature with varying concentrations of CuCl2 to achieve the indicated ratios of reactants, in a final volume of 0.7 ml. Chromatography was carried out on the resulting products at pH 2 (0.05% trifluoroacetic acid) on μBondapak™ C-18 (3.9×300 mm) at 1.0 ml/minute using an acetonitrile gradient (0–17%, 20 ml; 17–20%, 60 ml; 20–60%, 10 ml). Elution positions of unreacted protein (p7NC or apo-p7) are indicated as apo-p7.
A two-fold excess of NOBA was reacted with p7NC, and the products were separated by HPLC (FIG. 10) as described above for Cu^+2 and p7NC. Elution positions for the reactants (NOBA and unreacted p7NC) and products, reacted p7NC, NOBA, HABA and AzoxyBA are indicated and an elution profile is included in FIG. 10. NOBA and AzoxyBA were supplied by Octamer, Inc. (Mill Valley, Calif.) and used as HPLC standards.
The disulfide reagent of choice (each available from the Aldrich Chemical Company (Milwaukee, Wis.)) was incubated for 10 minutes with purified p7NC protein (63 μM) at a ratio of 6 molecules of reagent to 1 molecule of NC protein (there are 6 cysteine thiols per NC protein). The formation of non-native protein conformations was monitored by HPLC as described above. […] Generally, the inactivation proceeds by formation of non-native, intra-protein disulfide links (designated “Disulfides”), but some of the reagents form adducts with the cysteine residues as well (designated “Adducts”). “Slow” reactions are those in which greater than 10% of the p7NC protein remained in its native form after the 10 minute incubation with reagent. “Very slow” reactions are those in which greater than 50% of the p7NC protein remained in its native form after the 10 minute incubation with reagent. “Fast” reactions result in complete transformation of the p7NC protein to non-native conformations during the 10 minute incubation period.

[4] = cited from earlier work
[5] = test system: HIV-1; conditions: read-out: TCID (Virus): concentration of reagent required to inactivate half of a standardized number of HIV-1 virus particles; tissue culture infectivity assay
Description: Concomitantly, the drug treated virions are tested for activity. The virions are suspended in media (rather than solubilized) and added to target cells. The cultures are then examined to determine whether the virions are still active.

[6] = biological target: T4, HIV-1 (MN) p7NC (Human immunodeficiency virus type 1 group M subtype B, UniProt P05888); test: Intrinsic Trp-37 fluorescence quenching of p7NC; type: biochemical; conditions: for change in intrinsic fluorescence of p7NC on incubation: Trp-37 fluorescence, zinc-reconstituted p7NC
T4 construct: The NC protein of HIV-1 (MN) p7NC was expressed in E. coli; made in house; host or cells: E. coli (vector pMAL-c)
Description: The NC protein of HIV-1 (MN) p7NC was expressed in E. coli. The coding sequence for HIV-1(MN) p7NC was cloned and expressed using an inducible E. coli promoter in the vector pMAL-c (New England Biolabs Inc., Beverly, Mass.). The protein was expressed as a maltose-binding fusion protein and released by proteolysis with Factor Xa. HIV-1(MN) p7NC was purified by HPLC and characterized, including complete amino acid sequence analysis. p7NC was purified by high-pressure liquid chromatography (HPLC) and reconstituted with two equivalents of zinc to generate native protein as described (M. F. Summers et al., Protein Sci. 1, 563 (1992)).
Coordination of Zn^+2 enhances the intrinsic fluorescence of the single tryptophan (Trp-37) in the second zinc finger. […] The initial phase of the reaction with Cu^+2 (T1/2<20 seconds) gave 70% quenching of the original fluorescence, followed by a much slower phase (T1/2 ca. 6 minutes), resulting in a final limiting quenching of 85%.
The first quenching phase was a second order reaction, whereas the second phase was independent of protein concentration or oxidizing species.

| SMILES | X-link T-½ (min), EIAV p11NC (second number) [1] [min] | X-link T-½ (min), HIV NC protein (top number) [2] | Protein (HPLC): reaction products [3] | cross-linking of the HIV-1 NC protein in intact virus (gel-mobility shift), in words [2] | Protein (HPLC): reaction rate [3] | other results |
| --- | --- | --- | --- | --- | --- | --- |
| N#Cc1ccccc1SSc1ccccc1C#N [2,2 Dithiobis(benzonitrile)] | ~15 | <<15 min | Disulfides; also recorded: Adducts | – | – | – |
| c1ccc2sc(SSc3nc4ccccc4s3)nc2c1 [2,2 Dithiobis(benzothiazole)] | – | – | Disulfides | caused a cross-linking of the HIV-1 NC protein | – | X-link T-½ (min), HIV NC protein [2]: ~60 min; Toxicity (LD-50, mouse) ([4]; route not given): 7000 mg/kg |
| CC(C)n1cc(C(C)(C)C)nc1SSc1nc(C(C)(C)C)cn1C(C)C [2,2-Dithiobis(4-Tert-Butyl-1-Isopropyl)-Imidazole] | – | – | Disulfides | – | – | X-link T-½ (min), HIV NC protein [2]: >>60 min |
| [O-][n+]1ccccc1SSc1cccc[n+]1[O-] [2,2-Dithiobis(Pyridine N-Oxide)] | <15 | <<15 min | Disulfides | caused a cross-linking of the HIV-1 NC protein | – | – |
| O=C(O)c1ccc(SSc2ccc(C(=O)O)cn2)nc1 [6,6-Dithiodinicotinic Acid] | – | – | Disulfides; also recorded: Adducts | – | (slow) (“Slow” reactions are those in which greater than 10% of the p7NC protein remained in its native form after the 10 minute incubation with reagent) | X-link T-½ (min), HIV NC protein [2]: ~60 min |
| c1ccc(SSc2ccccn2)nc1 [Aldrithiol-2] | ~15 | ~15 min | Disulfides; also recorded: Adducts | caused a cross-linking of the HIV-1 NC protein | (slow) (“Slow” reactions are those in which greater than 10% of the p7NC protein remained in its native form after the 10 minute incubation with reagent) | IC50 [5]: 9 µM |
| [Cl][Cu][Cl] [Cu^+2, cupric chloride] | – | – | – | – | – | total protein recovered in peak B ([3]; 2, 4 or 8 Cu^+2 per p7NC, 44.3 μM protein, 6 minutes, pH 7.4): approximately one half; change in intrinsic fluorescence of p7NC on incubation [6]: rapid biphasic decrease in fluorescence; final limiting quenching ([6]; Zn^+2-coordinated p7NC): 85%; quenching of the original fluorescence, initial phase ([6]; Zn^+2-coordinated p7NC): 70% |
| Cl.Cl.N=C(N)SSC(=N)N [Formamidine Disulfide.2HCl] | – | – | Disulfides | – | – | IC50 [5]: 43.5 µM |
| CCCCN(CCCC)C(=S)SSC(=S)N(CCCC)CCCC [Tetrabutylthiuram Disulfide] | >60 | ~30 min | Disulfides; also recorded: Adducts | caused a cross-linking of the HIV-1 NC protein | (slow) (“Slow” reactions are those in which greater than 10% of the p7NC protein remained in its native form after the 10 minute incubation with reagent) | Toxicity (LD-50, mouse) ([4]; IP): 2350 mg/kg |
| CC(C)N(C(=S)SSC(=S)N(C(C)C)C(C)C)C(C)C [Tetraisopropylthiuram Disulfide] | ~15 | >15 min | Disulfides | caused a cross-linking of the HIV-1 NC protein | – | – |
| CN(C)C(=S)SSC(=S)N(C)C [Tetramethylthiuram Disulfide] | ~15 | ~30 min | Disulfides | caused a cross-linking of the HIV-1 NC protein | (slow) (“Slow” reactions are those in which greater than 10% of the p7NC protein remained in its native form after the 10 minute incubation with reagent) | Toxicity (LD-50, mouse) ([4]; IP): 70 mg/kg; Toxicity (LD-50, mouse) ([4]; oral): 1350 mg/kg |
| CC(=O)[O-].CC(=O)[O-].CC(=O)[O-].[Fe+3] [ferric acetate] | – | – | – | – | – | change in intrinsic fluorescence of p7NC on incubation [6]: rapid biphasic decrease in fluorescence |
